Common to all, as to assay type: physicochemical
Series [1] is described as follows: Stability of the form in pH 1 (0.1N HCl) solution. To be noted: pH 1 (0.1N HCl) solution over 72 hour.
Series [2] is described as follows: Solubility of crystalline form A.
The nature of series [3]: Hygroscopicity (moisture uptake at relative humidity).
Series [4] is described as follows: pH of 1% suspension in water.

Converted amounts (≈) assume the structure as drawn.

As usually defined, the solubility is the concentration that dissolves in the medium under given conditions. For the molecule `Cc1cc(Nc2ncc(Cl)c(Nc3ccccc3S(=O)(=O)C(C)C)n2)c(OC(C)C)cc1C1CCNCC1` [Form A, 5-Chloro-N2-(2-isopropoxy-5-methyl-4-piperidin-4-yl-phenyl)-N4-[2-(propane-2-sulfonyl)-phenyl]-pyrimidine-2,4-diamine], the “conversion of form in solution” value in series [1] is reported as “converted to a hydrochloride salt (non-stoichiometric)”. Moreover, the solubility is 0.21 mg/mL (≈ 0.376 mM) in series [2] (in water); 40 mg/mL (≈ 71.7 mM) in series [2] (organic solvent or mixture, in methanol (organic solvent)); 11 mg/mL (≈ 19.7 mM) in series [2] (pH 1 solution (0.1N HCl), simulated gastric fluid, in pH 1). Besides, the hygroscopicity result in series [3] (84% relative humidity (RH)) is reported as “relatively non-hygroscopic”. In series [3] (93% RH), the moisture uptake entry is on record as “minor increase in moisture uptake”. Further, the “pH of 1% suspension in water” value in series [4] was 6.86.

These data come from patent US9309229B2, “Crystalline forms of 5-chloro-N2-(2-isopropoxy-5-methyl-4-piperidin-4-yl-phenyl)-N4-[2-(propane-2-sulfonyl)-phenyl]-pyrimidine-2, 4-diamine” (Novartis AG, priority 2010, dated 2016).
